Laboratory results reported in patent US6441032B1, “Alpha-(4-Ethoxyphenyl)-N-tert-butylnitrone, pharmaceutical compositions and their medical use” (Centaur Pharmaceuticals, Inc., priority 1997, dated 2002).

Columns and labels:
[1] = test system: Lewis rats with MBP-induced EAE; experiment: Prevention of MBP-induced experimental allergic encephalomyelitis; assay type: in vivo, Lewis rat; settings: 100 mg/kg b.i.d. oral gavage, day 3 to day 16 post-inoculation
Method: Female, Lewis rats of 8 weeks of age (180-250 g) were weighed and then given two intradermal injections (0.1 mL each) of 0.4 mg of M. tuberculin in 0.1 mL incomplete Freunds adjuvant and […] of myelin basic protein in 0.1 mL of saline into the base of the tail. Animals were weighed daily and given a clinical score beginning on Day 8, post inoculation, according to the following criteria:
2.5=Hind limb paralysis and front limb weakness
3.0=Hind and front limb paralysis
4.0=Moribund state or death
On day 3, post-inoculation animals were administered b.i.d either a test compound (100 mg/kg) or 1% methylcellulose vehicle by oral gavage up to and including day 16.

[2] = test system: Male Sprague-Dawley rats injected with Aβ(25-35) and ibotenate; experiment: Reduction of cognitive defects due to Aβ-peptide/ibotenate (Morris water maze); assay type: in vivo, Sprague-Dawley rat; settings: 10 mgl/k by oral gavage daily
From the text: The procedures employed in this example are similar to those described in Dornan et al. NeuroReport 5, 165-168 (1993). Male Sprague-Dawley rats (200-300 g) were weighed and given 10 mgl/k of α-(2-ethoxyphenyl)-N-tert-butylnitrone or 1% methylcellulose by oral gavage. One hour later, the rats were stereotaxically injected into the CA1 region of their hippocampus with 8 nmol of Aβ(25-35) and 6 nmol of ibotenate per side (coordinates from bregma −3.6=AP, ±2.2=ML, −3.0=DV from the top of the dura). Controls were injected with PBS (pH 7.4). All injections were 1.5 μL in volume. The animals receiving PBS were orally dosed with 1% methylcellulose. Oral dosing continued daily until the end of the Morris water maze testing.
Nine to eleven days following injection, animals were tested in a Morris water maze task to measure spatial memory and learning. Animals were given three days of testing with four to six trials per day. The last trial on the fourth day was a probe trial where the platform was removed and time in quadrant and annulae crossings were determined. Following the behavioral testing, animals were perfused with 10% neutral formalin. The brain was post-fixed for 1 week in 10% formalin and then sliced for histological evaluation. Image analysis of cresyl violet staining was used to compare the neuronal loss (lesion volume) in the hippocampus between groups.

[3] = test system: MRL/MpJ Fas^lpr mice; experiment: Reduction of cognitive deficits in autoimmune mice (T-maze task); assay type: in vivo, mouse; settings: 100 mg/kg oral gavage daily for 8 to 9 weeks, versus untreated mutant mice
Method: MRL/MpJfas^lPr (“mutant mice” or “Fas^lPr”) strains of mice have been described as useful models of Lupus due to their autoimmune lymphoproliferative pathology. In particular, the mutant mice show a cognitive deficit at approximately four months of age, which is not observed at two months of age. See, for example, Forster et al., 1988. Behav. Neural Biology, 49, 139-151.
In the experiment, male MRL/MpJ Fas^lpr and normal MRL/MpJ++mice of 8 weeks of age were weighed and administered 100 mg/kg of the test compound (either α-(2-ethoxyphenyl)-N-tert-butylnitrone or α-(4-ethoxyphenyl)-N-cyclohexylnitrone) or 1% methylcellulose vehicle by oral gavage daily for 8 to 9 weeks. At 4 months of age, the mice were tested for avoidance, discrimination, session criteria and acquisition in a one day T-maze task with a maximum of 25 trials. Criteria was met with four of five trials correct with the last two correct trials being consecutive in avoidance and discrimination.

Row | Structure (SMILES) | CNS inflammatory deficit in acute EAE animals [1] | other results
1 | CCOc1ccc(C=[N+]([O-])C2CCCCC2)cc1OC [Example 15, α-(4-Ethoxy-3-methoxyphenyl)-N-cyclohexylnitrone] | did not significantly reduce the CNS inflammatory deficit | –
2 | CCCC[N+]([O-])=Cc1ccc(OCC)cc1 [Example 10, α-(4-ethoxyphenyl)-N-n-butylnitrone] | did not significantly reduce the CNS inflammatory deficit | –
3 | CCOc1cc(C=[N+]([O-])C(C)(C)CC(C)(C)C)ccc1OC [Example 45, α-(3-Ethoxy-4-methoxyphenyl)-N-tert-octylnitrone] | reduced the CNS inflammatory deficit | –
4 | CCCCCCOc1ccc(C=[N+]([O-])C2CCCCC2)cc1OCC [Example 22, α-(3-Ethoxy-4hexyloxyphenyl)-N-cyclohexylnitrone] | reduced the CNS inflammatory deficit | –
5 | [O-][N+](=Cc1ccc(OCc2ccccc2)cc1)C1CCCC1 [Example 42, α-(4-Benzyloxyphenyl)-N-cyclopentylnitrone] | reduced the CNS inflammatory deficit | –
6 | CCOc1ccc(C=[N+]([O-])C(C)(C)C)cc1 [Example 4, α-(4-Ethoxyphenyl)-N-tert-butylnitrone] | did not significantly reduce the CNS inflammatory deficit | –
7 | CCCCCCCCOc1ccc(C=[N+]([O-])C(C)(C)C)c(F)c1 [Example 29, α-(2-Fluoro-4-octyloxyphenyl)-N-tert-butylnitrone] | did not significantly reduce the CNS inflammatory deficit | –
8 | CCOc1ccccc1C=[N+]([O-])C(C)(C)C [Example 7, α-(2-Ethoxyphenyl)-N-tert-butylnitrone] | did not significantly reduce the CNS inflammatory deficit | Aβ peptide/ibotenate-induced learning deficit [2]: reduced the Aβ peptide/ibotenate-induced learning deficit; acquisition in T-maze task [3]: reduced acquisition values; avoidance in T-maze task [3]: acquired avoidance skills earlier
9 | CCOc1cc(C=[N+]([O-])C(C)C)ccc1OC [Example 17, α-(3-Ethoxy-4-methoxyphenyl)-N-isopropylnitrone] | reduced the CNS inflammatory deficit | –
10 | CCOc1ccc(C=[N+]([O-])C2CCCCC2)cc1 [Example 11, α-(4-Ethoxyphenyl)-N-cyclohexylnitrone] | reduced the CNS inflammatory deficit | acquisition in T-maze task [3]: reduced acquisition values; avoidance in T-maze task [3]: acquired avoidance skills earlier
11 | CC(C)(C)[N+]([O-])=Cc1ccc(OCc2ccccc2)cc1 [Example 41, α-(4-Benzyloxyphenyl)-N-tert-butylnitrone] | reduced the CNS inflammatory deficit | –
12 | COc1cc(C=[N+]([O-])C(C)(C)C)ccc1OCc1ccccc1 [Example 5, α-(4-Benzyloxy-3-methoxyphenyl)-N-tert-butylnitrone] | did not significantly reduce the CNS inflammatory deficit | –
13 | CCOc1cc(C=[N+]([O-])C(C)(C)C)ccc1OC [Example 3, α-(3-Ethoxy-4-methoxyphenyl)-N-tert-butylnitrone] | reduced the CNS inflammatory deficit | –
